Measurements as given in US5716934A, “Eck receptor ligands” (Amgen Inc., priority 1995, dated 1998).

Legend:
[1] = tested on: eck receptor on CHO 19.32 cells; experiment: Chemical crosslinking of 125I-EBP to CHO 19.32 cells; assay type: binding, human
Procedure: (§1) CHO-cell derived EBP was radiolabelled with ^125 I as described below for use in crosslinking and binding studies. Five or 10 μg of EBP in 0.1M sodium phosphate (NAPO4, pH 8.0) was added to 5 mCi of dried ^125 I-Bolton-Hunter reagent (NEN, Boston, Mass.) in a final volume of 50 μl or 100 μl, and the tube was incubated at 4° C. for 1 h. The reaction was terminated by addition of 0.3 ml of 0.2M glycine in 0.1M NaPO4, followed by incubation at 4° C. for 5 min. Labeled protein was separated from unincorporated reagent by gel filtration chromatography on a 10 ml PD10 column containing Sephadex G-25M (Pharmacia) equilibrated with 0.1M NaPO4 --0.25% gelatin. Specific activity of the ^125 I-EBP ranged from 4 to 19 cpm/pg.
(§2) Crosslinking of EBP to either LIM 2405 (a cell line naturally expressing the eck receptor) or CHO 19.32 (Chinese hamster ovary cells transfected with a clone of the full length eck receptor) was carried out as follows. CHO cells were grown in suspension to a density of approximately 5×10^5 cells/ml in media. LIM2405 cells were grown in RPMI 1640 media containing 5% FCS, 1 μg/ml insulin, 1 μg/ml hydrocortisone, 10 μM thioglycerol and 2 mM L-glutamine to approximately 90% confluency in T-175 flasks and removed by scraping for use in the crosslinking studies. Cells were spun down and resuspended in PBS to give a single cell suspension. For each crosslinking reaction, 2×10^6 cells were mixed with approximately 20 ng of ^125 I-EBP in a total volume of 1 ml. This mixture was incubated at 4° C. for 1 h to allow binding of EBP to cell surface receptors before the addition of 20 μl of 10 mM disuccinimidyl suberate (DSS) as a crosslinking agent. Cells were then washed three times in binding buffer, collected by centrifugation, and the amount of radioactivity incorporated into the cell pellets was counted to assess the degree of crosslinking. The cells were then lysed by treatment with 100 ul PBS, 1 mM EDTA, 0.5% NP-40, 1 mM phenylmethylsulfonyl fluoride (PMSF, Sigma, St. Louis, Mo.) for 10 min at 4° C. […]

eck receptor = experiment: as above; assay type: binding, human; details: untransfected cells (CHOd-)
Procedure: as §1, §2

eck receptor (p130^eck) = experiment: p130eck autophosphorylation in LIM 2405 cells; assay type: cell-based, human; details: for eck receptor phosphorylation: intact LIM 2405 cells, 10-15 min at 37° C.
Procedure: The LIM 2405 colorectal carcinoma cell line (Whitehead et al. Immunol. and Cell Biol. 70, 227 (1992)) was maintained in RPMI 1640 containing 5% FBS, 1 μg/ml insulin, 10 μg/ml hydrocortisone and 10 μM α-thioglycerol, and subpassaged by trypsination and dilution (1:5) into fresh media. Prior to assay 2.5×10^5 LIM 2405 cells were seeded into 6-well dishes (Falcon #3046) and incubated for 24 hr at 37° C. The media was discarded and replaced with serum-free RPMI 1640 containing 0.03% BSA, 1 μg/ml insulin, 10 μg/ml hydrocortisone and 10 μM α-thioglycerol, then incubated for 12-18 hr. In some experiments the cell cultures were labelled with ^32 P-orthophosphate (2 mCi/ml) in phosphate-free RPMI 1640 (Flow) for 2-3 hr prior to treatment. Growth factor stock solutions were prediluted at varying concentrations into 2.0 ml of serum-free media, then warmed to 37° C. Cell cultures were removed from the incubator, and the supernatant media discarded. Treatments were promptly added and the cell cultures incubated at 37° C. for 10-15 min. The cultures were then removed from the incubator, placed on ice, and the culture supernatant aspirated.
The treated cell cultures were chilled to 0° C. then washed once with ice-cold PBS (GIBCO). The residual PBS was aspirated and the cells were lysed by the addition of 1.0 ml of ice-cold RIPA buffer (10 mM sodium phosphate, pH 7.4, 150 mM sodium chloride, 0.1% sodium dodecyl sulfate, 1% NP-40, 1% deoxycholate, 1% Trasylol, 2 mM EDTA, 50 mM sodium fluoride and 100 mM sodium orthovanadate). After a 10 min incubation the lysates were transferred to 1.5 ml tubes and clarified by centrifugation for 30 min at 10,000×g. The clarified lysate supernatants were transferred to new tubes and immunoprecipitated with 1.0 μg/ml of affinity purified rabbit anti-Eck C-terminal domain antibody for 2 hr at 0° C. Immune complexes were adsorbed to Protein-G Sepharose beads (Pharmacia) at 4° C. for 30 min, washed twice with ice-cold RIPA buffer, once with 0.1M Tris-HCl, pH 8.0, containing 0.5M LiCl, and once with RIPA. The resulting immunoprecipitates were solubilized with SDS-PAGE sample buffer and stored for further analysis.
The anti-eck immunoprecipitates from treated and untreated LIM 2405 cell lysates were resolved on 7.5% polyacrylamide gels as previously described (Boyle et al. Meth. Enzymol. 201, 110 (1991)). […] Immune complexes were detected by chemiluminescent exposure (ECL, Amersham) to Kodak X-OMAT X-ray film at room temperature for 0.5-5 min.
Eck receptor immunoprecipitates from ^32 P-labelled LIM 2405 cells were resolved by SDS-PAGE, and the gel dried directly without fixation. After exposure to X-ray film the labelled eck receptor band was isolated and phosphoamino acid content determined as described (Boyle et al. Meth. Enzymol. 201, 110 (1991))

CHO-EBP: recombinant EBP purified from supernatants of CHO cells transfected with the EBP gene; mainly EBP^1-150 and EBP^1-159
competition for binding and crosslinking of 125I-rEBP ([1]; 50-fold molar excess): able to compete | crosslinking to CHO 19.32 cells ([1]; CHO cells transfected with eck, DSS crosslinker): could be crosslinked | crosslinking to untransfected CHO cells (eck receptor): but not to the untransfected cells | total cellular eck protein levels (eck receptor (p130^eck); LIM 2405 cells after exposure to soluble EBP): modest dose-dependent decrease | eck receptor phosphorylation (eck receptor (p130^eck); listed as CHO cell-derived rEBP): stimulated eck receptor phosphorylation | eck receptor phosphorylation (eck receptor (p130^eck); listed as CHO-derived rEBP): active in inducing phosphorylation
